Data as given in paper PMC10873978, “Novel tetrahydroisoquinolines as DHFR and CDK2 inhibitors: synthesis, characterization, anticancer activity and antioxidant properties” (BMC Chemistry, 2024).
Entries after “also recorded” stand apart in the source; their conditions may differ.

Columns and labels:
[1] = DPPH scavenging antioxidant activity
Protocol: The antioxidant activity of ten compounds was determined using DPPH [32–34]. A solution 1: prepared by dissolving DPPH (0.002 g) in ethanol (50 mL etnanol). Solution 2: prepared by dissolving different weights 0.05, 0.01 g of each sample in 1 mL of DMSO then take 10 µL of each sample solution with 1 mL ethanol. Then mix 1 mL of solution 1 with 1 mL of solution 2 then vortex the resulting mixture in the dark for about 30 min. The absorbance of the mixture was measured by spectrophotometer at λmax = 517 nm against blank 1 mL absolute ethanol and compared to the ascorbic acid (Vitamin C).
Ten newly synthesized compounds were studied as in vitro antioxidants by measuring of their DPPH scavenging activity which is represented as a percentage % [32]^. Results are represented by mean ± SD of three replicates. […] The higher dose concentration of 0.05 μg/mL represents higher antioxidant activity. […] The high antioxidant activity is referred to the presence of C=O, NH2, and OH groups like ascorbic acid which can be easily oxidized and reduced and can be used as antioxidant drugs. (Fig. 8 and Table 9).

[2] = system: MCF7 cell line; assay: In vitro cytotoxic activity, MTT method, MCF7; assay type: cell-based, human; conditions: for IC50: Homo sapiens, MCF7, MCF7 cell line, MTT
In short: (§1)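 Monolayers formed over 24 h at 37 °C from 10^5 cells/mL were treated with graded compound concentrations, doxorubicin serving as reference. Viability came from MTT reduction over 1–5 h (5% CO2), absorbance at 560 nm with 620 nm background subtraction.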

[3] = system: A549 cell line; assay: In vitro cytotoxic activity, MTT method, A549; conditions: for IC50: Homo sapiens, read-out: IC50 ± SD
In short: as §1

## CC(=O)C1C(c2ccc(N(C)C)cc2)c2c(C)nc(SCC(=O)Nc3ccccc3)c(C#N)c2CC1(C)O (centres unmarked) [Compound 7a, 2-[(7-Acetyl-4-cyano-1,6-dimethyl-6-hydroxy-8-(4-N,N-dimethylamino-phenyl)-5,6,7,8-tetrahydroisoquinolin-3-yl)thio]-N-phenylacetamide]
[1]; 0.01 µg/mL
  DPPH scavenging, inhibition (%): 43.26 ± 0.73%
[1]; 0.05 µg/mL
  DPPH scavenging, inhibition (%): 62.96 ± 0.73%
[2]
  IC50: 2.218 ± 0.004 µM
[2]; MCF7, 0.0487 µMol
  Toxicity %: -5.346%
  Viability %: 105.8%
[2]; MCF7, 0.0975 µMol
  Toxicity %: -3.456%
  Viability %: 103.5%
[2]; MCF7, 0.195 µMol
  Toxicity %: -2.859%
  Viability %: 102.9%
[2]; MCF7, 0.391 µMol
  Toxicity %: 8.047%
  Viability %: 91.95%
[2]; MCF7, 0.781 µMol
  Toxicity %: 23.12%
  Viability %: 76.88%
[2]; MCF7, 1.562 µMol
  Toxicity %: 33.82%
  Viability %: 66.18%
[2]; MCF7, 3.125 µMol
  Toxicity %: 52.98%
  Viability %: 47.02%
[2]; MCF7, 6.25 µMol
  Toxicity %: 71.85%
  Viability %: 28.15%
[2]; MCF7, 12.5 µMol
  Toxicity %: 91.95%
  Viability %: 8.047%
[2]; MCF7, 25 µMol
  Toxicity %: 97.39%
  Viability %: 2.614%
[3]; A549, Conc. 0.04875 µMol
  Toxicity %: 0.09882%
  Viability %: 99.9%
[3]; A549, Conc. 0.0975 µMol
  Toxicity %: 0.1346%
  Viability %: 99.87%
[3]; A549, Conc. 0.195 µMol
  Toxicity %: 0.168%
  Viability %: 99.83%
[3]; A549, Conc. 0.391 µMol
  Toxicity %: 13.91%
  Viability %: 86.09%
[3]; A549, Conc. 0.781 µMol
  Toxicity %: 29.94%
  Viability %: 70.06%
[3]; A549, Conc. 1.562 µMol
  Toxicity %: 41.33%
  Viability %: 58.67%
[3]; A549, Conc. 3.125 µMol
  Toxicity %: 53.33%
  Viability %: 46.67%
[3]; A549, Conc. 6.25 µMol
  Toxicity %: 80.11%
  Viability %: 19.89%
[3]; A549, Conc. 12.5 µMol
  Toxicity %: 91.33%
  Viability %: 8.669%
[3]; A549, Conc. 25 µMol
  Toxicity %: 96.98%
  Viability %: 3.024%
[3]
  IC50: 1.586 ± 0.001 µM

## CC(=O)C1C(c2ccc(N(C)C)cc2)c2c(C)nc(SCC(=O)Nc3ccc(C)cc3)c(C#N)c2CC1(C)O (centres unmarked) [Compound 7b, 2-[(7-Acetyl-4-cyano-1,6-dimethyl-6-hydroxy-8-(4-N,N-dimethylamino-phenyl)-5,6,7,8-tetrahydroisoquinolin-3-yl)thio]-N-(4-tolyl)acetamide]
[1]; 0.01 µg/mL
  DPPH scavenging, inhibition (%): 48.59 ± 0.73%
[1]; 0.05 µg/mL
  DPPH scavenging, inhibition (%): 52.19 ± 0.58%
[2]
  IC50: 0.474 ± 0.006 µM
[2]; MCF7, 0.0487 µMol
  Toxicity %: 4.569%
  Viability %: 95.4311%
[2]; MCF7, 0.0975 µMol
  Toxicity %: 6.234%
  Viability %: 93.77%
[2]; MCF7, 0.195 µMol
  Toxicity %: 8.333%
  Viability %: 91.67%
[2]; MCF7, 0.391 µMol
  Toxicity %: 39.62%
  Viability %: 60.38%
[2]; MCF7, 0.781 µMol
  Toxicity %: 74.92%
  Viability %: 25.08%
[2]; MCF7, 1.562 µMol
  Toxicity %: 82.39%
  Viability %: 17.61%
[2]; MCF7, 3.125 µMol
  Toxicity %: 86.44%
  Viability %: 13.56%
[2]; MCF7, 6.25 µMol
  Toxicity %: 93.1%
  Viability %: 6.904%
[2]; MCF7, 12.5 µMol
  Toxicity %: 96.61%
  Viability %: 3.391%
[2]; MCF7, 25 µMol
  Toxicity %: 96.57%
  Viability %: 3.431%
[3]; A549, Conc. 0.04875 µMol
  Toxicity %: 0.2467%
  Viability %: 99.7534%
[3]; A549, Conc. 0.0975 µMol
  Toxicity %: 0.3467%
  Viability %: 99.6534%
[3]; A549, Conc. 0.195 µMol
  Toxicity %: 0.5128%
  Viability %: 99.49%
[3]; A549, Conc. 0.391 µMol
  Toxicity %: 14.2%
  Viability %: 85.8%
[3]; A549, Conc. 0.781 µMol
  Toxicity %: 35.82%
  Viability %: 64.18%
[3]; A549, Conc. 1.562 µMol
  Toxicity %: 53.81%
  Viability %: 46.19%
[3]; A549, Conc. 3.125 µMol
  Toxicity %: 72.39%
  Viability %: 27.61%
[3]; A549, Conc. 6.25 µMol
  Toxicity %: 86.39%
  Viability %: 13.61%
[3]; A549, Conc. 12.5 µMol
  Toxicity %: 93.85%
  Viability %: 6.154%
[3]; A549, Conc. 25 µMol
  Toxicity %: 96.41%
  Viability %: 3.59%
[3]
  IC50: 0.987 ± 0.002 µM

## CC(=O)C1C(c2ccc(N(C)C)cc2)c2c(C)nc(SCC(=O)Nc3ccc(Cl)cc3)c(C#N)c2CC1(C)O (centres unmarked) [Compound 7c, 2-[(7-Acetyl-4-cyano-1,6-dimethyl-6-hydroxy-8-(4-N,N-dimethylamino-phenyl)-,5,6,7,8-tetrahydroisoquinolin-3-yl)thio]-N-(4-chlorophenyl)acetamide]
[1]; 0.01 µg/mL
  DPPH scavenging, inhibition (%): 77.90 ± 6.22%
[1]; 0.05 µg/mL
  DPPH scavenging, inhibition (%): 81.39 ± 4.99%
[1]; DPPH
  antioxidant activity compared with Vitamin C: higher result than Vitamin C; also recorded: higher antioxidant activity than Vitamin C
[2]
  IC50: 1.491 ± 0.004 µM
[2]; MCF7, 0.0487 µMol
  Toxicity %: -0.6776%
  Viability %: 100.4%
[2]; MCF7, 0.0975 µMol
  Toxicity %: -0.5335%
  Viability %: 100.6%
[2]; MCF7, 0.195 µMol
  Viability %: 99.47%
[2]; MCF7, 0.391 µMol
  Viability %: 100.1634%
[2]; MCF7, 0.781 µMol
  Toxicity %: 8.333%
  Viability %: 91.67%
[2]; MCF7, 1.562 µMol
  Toxicity %: 36.68%
  Viability %: 63.32%
[2]; MCF7, 3.125 µMol
  Toxicity %: 65.48%
  Viability %: 34.52%
[2]; MCF7, 6.25 µMol
  Toxicity %: 86.36%
  Viability %: 13.64%
[2]; MCF7, 12.5 µMol
  Toxicity %: 80.15%
  Viability %: 19.85%
[2]; MCF7, 25 µMol
  Toxicity %: 96.77%
  Viability %: 3.227%
[3]; A549, Conc. 0.04875 µMol
  Toxicity %: 3.457%
  Viability %: 96.54%
[3]; A549, Conc. 0.0975 µMol
  Toxicity %: 4.658%
  Viability %: 95.3422%
[3]; A549, Conc. 0.195 µMol
  Toxicity %: 6.193%
  Viability %: 93.81%
[3]; A549, Conc. 0.391 µMol
  Toxicity %: 33.41%
  Viability %: 66.59%
[3]; A549, Conc. 0.781 µMol
  Toxicity %: 51.48%
  Viability %: 48.52%
[3]; A549, Conc. 1.562 µMol
  Toxicity %: 68.05%
  Viability %: 31.95%
[3]; A549, Conc. 3.125 µMol
  Toxicity %: 77.2%
  Viability %: 22.8%
[3]; A549, Conc. 6.25 µMol
  Toxicity %: 90.57%
  Viability %: 9.428%
[3]; A549, Conc. 12.5 µMol
  Toxicity %: 95.94%
  Viability %: 4.063%
[3]; A549, Conc. 25 µMol
  Toxicity %: 97.44%
  Viability %: 2.564%
[3]
  IC50: 0.496 ± 0.003 µM
